The results in this text go back to PMC12195967, “Cobalt(II) Complexes of 4′–Nitro–Fenamic Acid: Characterization and Biological Evaluation” (Molecules, 2025).

For experiment [1], the target named is T1, bovine serum albumin (BSA) (Bos taurus, UniProt P02769).
T1 construct: purchased Sigma-Aldrich Co
The experiment in a line: Albumin tryptophan fluorescence quenching. To be noted: for relative fluorescence intensity of BSA (I/Io, %), final: % of the initial BSA fluorescence remaining, λem 345 nm; for K(BSA): Scatchard equation, no site marker; for Kq (BSA): τ0 = 10^−8 s. Format: binding. On the procedure: (§1) The interaction between complexes 1–4 and albumins was investigated by recording the tryptophan fluorescence emission spectra and monitoring the quenching induced by incremental amounts of the complexes. For these experiments, albumins ([…]) were prepared in buffer solution (150 mM NaCl and 15 mM trisodium citrate at pH = 7) and their fluorescence emission spectra were recorded in the range 300—500 nm for λexcitation = 295 nm. Upon incremental addition of the compounds (Figures S13 and S14), a significant decrease in the intensity of the corresponding emission band at λmax,emission = 341 nm and 345 nm for HSA and BSA, respectively, was observed (up to 87% of the initial fluorescence, Figure 8). The observed fluorescence emission quenching might be a result of a change in the spatial conformation of the protein and specifically of rearrangement of its secondary structure, as a result of SA–complex interactions. To quantify this interaction, the fluorescence emission spectra (λexcitation = 295 nm) of the compounds were subtracted from the corresponding overall spectra. The potential influence of the inner-filter effect on the measurements was evaluated with Equation (S6) and was found negligible to affect the measurements.
(§2) The Stern–Volmer constant (KSV), the SA-quenching constant (Kq) and the SA-binding constant (K) of the compounds were determined using the Stern–Volmer and Scatchard equations (Equations (S2), (S3) and (S7)) and corresponding plots (Figures S15–S18). In these calculations, the fluorescence lifetime of tryptophan in SAs (το) was assumed to be 10^−8 s. […]
(§3) S5 Albumin−binding studies
(§4) S5.1 Interaction with albumins
(§5) In order to study the interaction of the compounds with the albumins, the compound was initially dissolved in DMSO (1 mM). Mixing of such solutions with the aqueous buffer solutions of the albumins used in the studies never exceeded 5% DMSO (v/v) in the final solution, which was needed due to low aqueous solubility of most […]
(§6) With the purpose to investigate if the compound can bind to carrier protein like serum albumins, albumin binding studies were carried out by tryptophan fluorescence quenching experiments using BSA or HSA (3 μM) in buffer (containing 15 mM trisodium citrate and 150 mM NaCl at pH 7.0). The quenching of the emission intensity of tryptophan residues of BSA at 344 nm or HSA at 342 nm was monitored using the compound as quenchers with increasing concentration. The fluorescence emission spectra of the compound were also recorded with λexcitation = 295 nm; in case that an additional emission band appeared the albumin−fluorescence emission spectra were corrected by subtracting the spectra of the compound. The influence of the inner−filter effect on the measurements was evaluated by the equation [9] :
(§7) Icorr = Imeas × 10 2 × 10 2 (equation S6) where Icorr = corrected intensity, Imeas = the measured intensity, c = the concentration of the quencher, d = the cuvette (1 cm), ε(λexc) and ε(λem) = the ε of the quencher at the excitation and the emission wavelength, respectively, as calculated from the UV−vis spectra of the […]
(§8) The Stern−Volmer and Scatchard graphs are used to study the interaction of the compound with the albumins. According to the Stern−Volmer quenching equation (equation S2), where Io = initial tryptophan fluorescence intensity of albumin, I = tryptophan fluorescence intensity of BSA after the addition of the quencher, Kq = quenching constant, KSV = Stern−Volmer constant, τo = average lifetime of albumin without the quencher, and, taking as fluorescence lifetime (τo) of tryptophan in albumin at around 10−8 s, KSV (in M−1) can be obtained by the slope of the diagram Io/I versus [compound] (Stern−Volmer plots), […]
(§9) and subsequently the quenching constant (Kq, in M−1s−1) may be calculated from equation From the Scatchard equation:
(§10) [Q] = nK − K Io (equation S7) where n is the number of binding sites per albumin and K is the albumin−binding constant […]

Experiment [2] deals with T2, human serum albumin (HSA) (Homo sapiens, UniProt P02768).
T2 construct: purchased Sigma-Aldrich Co
The experiment in a line: Albumin tryptophan fluorescence quenching. Format: binding. Conditions: for relative fluorescence intensity of HSA (I/Io, %), final: % of the initial HSA fluorescence remaining, λem 341 nm; for K(HSA): Scatchard equation, no site marker; for Kq (HSA): τ0 = 10^−8 s. On the procedure: as §1, §2, §3, §4, §5, §6, §7, §8, §9, §10

T1 sequence (P02769 25-607): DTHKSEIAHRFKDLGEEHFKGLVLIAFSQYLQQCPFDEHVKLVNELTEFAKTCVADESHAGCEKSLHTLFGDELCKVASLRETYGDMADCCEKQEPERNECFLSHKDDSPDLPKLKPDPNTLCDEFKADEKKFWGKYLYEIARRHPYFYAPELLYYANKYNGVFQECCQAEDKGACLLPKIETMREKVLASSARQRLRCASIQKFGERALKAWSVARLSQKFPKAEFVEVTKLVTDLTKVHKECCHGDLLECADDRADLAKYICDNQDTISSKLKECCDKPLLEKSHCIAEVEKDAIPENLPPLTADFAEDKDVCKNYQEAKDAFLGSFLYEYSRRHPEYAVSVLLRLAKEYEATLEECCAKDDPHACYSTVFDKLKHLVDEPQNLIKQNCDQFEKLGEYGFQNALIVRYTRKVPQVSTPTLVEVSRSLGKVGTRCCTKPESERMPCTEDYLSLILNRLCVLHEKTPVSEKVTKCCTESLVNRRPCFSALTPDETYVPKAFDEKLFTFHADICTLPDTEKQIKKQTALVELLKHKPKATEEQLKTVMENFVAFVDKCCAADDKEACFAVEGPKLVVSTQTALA
T2 sequence (P02768 25-609): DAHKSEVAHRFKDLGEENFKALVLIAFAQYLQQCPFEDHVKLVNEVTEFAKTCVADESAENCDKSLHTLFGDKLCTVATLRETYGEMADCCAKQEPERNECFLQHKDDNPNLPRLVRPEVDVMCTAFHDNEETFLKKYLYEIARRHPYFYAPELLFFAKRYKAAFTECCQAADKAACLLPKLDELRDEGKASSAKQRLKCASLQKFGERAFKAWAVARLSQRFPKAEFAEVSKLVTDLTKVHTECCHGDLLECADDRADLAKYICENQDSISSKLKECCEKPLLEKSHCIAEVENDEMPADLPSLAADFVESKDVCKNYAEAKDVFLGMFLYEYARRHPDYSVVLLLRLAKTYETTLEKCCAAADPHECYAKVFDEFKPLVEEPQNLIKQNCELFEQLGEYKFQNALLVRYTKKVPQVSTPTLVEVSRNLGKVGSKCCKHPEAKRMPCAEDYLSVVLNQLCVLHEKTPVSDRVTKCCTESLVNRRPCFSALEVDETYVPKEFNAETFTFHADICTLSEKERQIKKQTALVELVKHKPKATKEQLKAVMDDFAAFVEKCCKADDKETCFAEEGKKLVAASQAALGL

Turning to `O=C(O)c1ccccc1Nc1ccc([N+](=O)[O-])cc1` [4′–NO2–fenH, 4′–nitrofenamic acid], in experiment [1], the “relative fluorescence intensity of BSA (I/Io, %), final” value was 45.0%; the “K(BSA)” value is recorded as 3.31 (±0.14) × 10^5 M^−1; the “Kq (BSA)” value is listed as 1.18 (±0.09) × 10^13 M^−1s^−1. Besides, in experiment [2], the “relative fluorescence intensity of HSA (I/Io, %), final” value was 54.3%; the “K(HSA)” value was 3.82 (±0.09) × 10^5 M^−1; the “Kq (HSA)” value was 9.54 (±1.09) × 10^12 M^−1s^−1.
On to `CO.CO.CO.CO.O=C([O-])c1ccccc1Nc1ccc([N+](=O)[O-])cc1.O=C([O-])c1ccccc1Nc1ccc([N+](=O)[O-])cc1.[Co+2]` [Complex 1, [Co(4′–NO2–fen)2(MeOH)4]], for which, in experiment [1], the “relative fluorescence intensity of BSA (I/Io, %), final” value was 45.6%; the “K(BSA)” value is listed as 1.68 (±0.07) × 10^5 M^−1; the “Kq (BSA)” value was 9.51 (±0.06) × 10^12 M^−1s^−1. In experiment [2], the “relative fluorescence intensity of HSA (I/Io, %), final” value is given as 32.8%; the “K(HSA)” value is 1.68 (±0.04) × 10^5 M^−1; the “Kq (HSA)” value is recorded as 1.10 (±0.03) × 10^13 M^−1s^−1.
Consider `O=C([O-])c1ccccc1Nc1ccc([N+](=O)[O-])cc1.O=C([O-])c1ccccc1Nc1ccc([N+](=O)[O-])cc1.[Co+2].c1ccc(Nc2ccccn2)nc1` [Complex 2, [Co(4′–NO2–fen)2(bipyam)]], for which, in experiment [1], the “relative fluorescence intensity of BSA (I/Io, %), final” value turned out to be 35.3%; the “K(BSA)” value is reported as 1.75 (±0.08) × 10^5 M^−1; the “Kq (BSA)” value was 1.30 (±0.06) × 10^13 M^−1s^−1. In addition, in experiment [2], the “relative fluorescence intensity of HSA (I/Io, %), final” value amounted to 21.1%; the “K(HSA)” value is listed as 2.56 (±0.10) × 10^5 M^−1; the “Kq (HSA)” value is 1.91 (±0.06) × 10^13 M^−1s^−1.
As for `O=C([O-])c1ccccc1Nc1ccc([N+](=O)[O-])cc1.O=C([O-])c1ccccc1Nc1ccc([N+](=O)[O-])cc1.[Co+2].c1cnc2c(c1)ccc1cccnc12` [Complex 3, [Co(4′–NO2–fen)2(phen)]], in experiment [1], the “relative fluorescence intensity of BSA (I/Io, %), final” value is 24.4%; the “K(BSA)” value is given as 2.06 (±0.07) × 10^5 M^−1; the “Kq (BSA)” value is recorded as 1.64 (±0.04) × 10^13 M^−1s^−1. Moreover, in experiment [2], the “relative fluorescence intensity of HSA (I/Io, %), final” value was determined as 22.7%; the “K(HSA)” value is 1.93 (±0.09) × 10^5 M^−1; the “Kq (HSA)” value is 1.87 (±0.04) × 10^13 M^−1s^−1.
As to `C[O-].C[O-].Cc1ccc2ccc3ccc(C)nc3c2n1.Cc1ccc2ccc3ccc(C)nc3c2n1.O=C([O-])c1ccccc1Nc1ccc([N+](=O)[O-])cc1.O=C([O-])c1ccccc1Nc1ccc([N+](=O)[O-])cc1.[Co+2].[Co+2]` [Complex 4, [Co2(4′–NO2–fen)2(μ–CH3O)2(neoc)2]], in experiment [1], the “relative fluorescence intensity of BSA (I/Io, %), final” value is 19.2%; the “K(BSA)” value is reported as 2.74 (±0.10) × 10^5 M^−1; the “Kq (BSA)” value was 2.19 (±0.05) × 10^13 M^−1s^−1. Besides, in experiment [2], the “relative fluorescence intensity of HSA (I/Io, %), final” value is on record as 12.1%; the “K(HSA)” value is on record as 5.03 (±0.19) × 10^5 M^−1; the “Kq (HSA)” value is listed as 3.98 (±0.12) × 10^13 M^−1s^−1.
